Assay results published in ChEMBL document CHEMBL1140505, “D-phenylglycinol-derived non-covalent factor Xa inhibitors: effect of non-peptidic S4 linkage elements on affinity and anticoagulant activity” (2007).

Key:
[1] = target: Coagulation factor X (Homo sapiens) (UniProt P00742); test: Binding affinity to F10a
Plasma [2] = test: Anticoagulant activity in rat plasma assessed as concentration causing 1.5 times prolongation of prothrombin time; assay type: functional
Plasma [3] = test: Anticoagulant activity in dog plasma assessed as concentration causing 1.5 times prolongation of prothrombin time; assay type: functional, Canis lupus familiaris
Plasma [4] = test: Anticoagulant activity in monkey plasma assessed as concentration causing 1.5 times prolongation of prothrombin time; assay type: functional, Macaca mulatta
Plasma [5] = test: Anticoagulant activity in human plasma assessed as concentration causing 1.5 times prolongation of prothrombin time; assay type: functional

Chain of Coagulation factor X (Homo sapiens) (P00742 41-179 limits assumed): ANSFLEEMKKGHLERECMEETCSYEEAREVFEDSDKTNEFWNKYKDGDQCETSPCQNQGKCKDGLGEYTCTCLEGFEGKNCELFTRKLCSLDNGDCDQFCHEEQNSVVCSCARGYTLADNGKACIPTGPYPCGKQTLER
Chain of Coagulation factor X (Homo sapiens) (P00742 235-488 limits assumed): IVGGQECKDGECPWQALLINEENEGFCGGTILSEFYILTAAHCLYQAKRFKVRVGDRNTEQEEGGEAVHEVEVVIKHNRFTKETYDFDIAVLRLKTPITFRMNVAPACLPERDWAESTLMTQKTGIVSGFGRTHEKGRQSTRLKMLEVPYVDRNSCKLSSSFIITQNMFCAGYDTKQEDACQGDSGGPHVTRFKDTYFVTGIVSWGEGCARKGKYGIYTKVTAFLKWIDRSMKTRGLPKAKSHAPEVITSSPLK

| SMILES | Kapp [1] | also measured |
| --- | --- | --- |
| CC(C)[C@H](COCC1CCN(C(C)C)CC1)NC(=O)c1ccc2c(Cl)c[nH]c2c1 | 14 10^6L/mol | – |
| COc1ccc(C(=O)N[C@@H](COCC2CCN(C(C)C)CC2)c2ccccc2)cc1 | 3 10^6L/mol | – |
| CN1CCC(COCC(NC(=O)c2ccc3c(Cl)c[nH]c3c2)c2ccccc2Cl)CC1 (stereo not drawn) | 65 10^6L/mol | – |
| CC(C)N1CCC(COCC(NC(=O)c2ccc3c(Cl)c[nH]c3c2)c2ccccc2F)CC1 (stereo not drawn) | 650 10^6L/mol | – |
| Cc1c[nH]c2cc(C(=O)N[C@@H](COCC3CCN(C(C)C)CC3)c3ccccc3)ccc12 | 160 10^6L/mol | – |
| CCN1CCC(COCC(NC(=O)c2ccc3c(Cl)c[nH]c3c2)c2ccccc2Cl)CC1 (stereo not drawn) | 150 10^6L/mol | – |
| CCCC[C@H](COCC1CCN(C(C)C)CC1)NC(=O)c1ccc2c(Cl)c[nH]c2c1 | 41 10^6L/mol | – |
| CC(C)N1CCC(COC[C@H](NC(=O)c2ccc3cc[nH]c3c2)c2ccccc2)CC1 | 35 10^6L/mol | – |
| O=C(NC(COCC1CCN(c2ccncc2)CC1)c1ccccc1Cl)c1ccc2c(Cl)c[nH]c2c1 (stereo not drawn) | 1300 10^6L/mol | – |
| CC(C)N1CCC(COCC(NC(=O)c2ccc3c(Cl)c[nH]c3c2)c2ccccc2Cl)CC1 (stereo not drawn) | 850 10^6L/mol | – |

Second part, led by results:

| Kapp [1] | SMILES | also measured |
| --- | --- | --- |
| 1200 10^6L/mol | CC(C)N1CCC(CNC[C@H](NC(=O)c2ccc3c(Cl)c[nH]c3c2)c2ccccc2)CC1 | – |
| 460 10^6L/mol | CC(C)N1CCC(CNC(=O)[C@H](NC(=O)c2ccc3c(Cl)c[nH]c3c2)c2ccccc2)CC1 | Activity (Plasma [2]): 2.6 µM; Activity (Plasma [3]): 3.2 µM; Activity (Plasma [4]): 0.6 µM; Activity (Plasma [5]): 0.5 µM |
| 1700 10^6L/mol | CC(C)N1CCC(COC[C@H](NC(=O)c2ccc3c(Cl)c[nH]c3c2)c2ccccc2)CC1 | Activity (Plasma [2]): 0.6 µM; Activity (Plasma [3]): 0.8 µM; Activity (Plasma [4]): 0.4 µM; Activity (Plasma [5]): 0.4 µM |
| 60 10^6L/mol | CC(C)N1CCC(CN(C)C[C@H](NC(=O)c2ccc3c(Cl)c[nH]c3c2)c2ccccc2)CC1 | – |
| 700 10^6L/mol | CC(C)N1CCC(CCCC(NC(=O)c2ccc3c(Cl)c[nH]c3c2)c2ccccc2)CC1 (stereo not drawn) | – |
